From ChEMBL document CHEMBL1201862, “PubChem BioAssay data set” (2004) come the findings set out here.

Holding throughout (assay): growth of human tumour cells (NCI), 48 h
For assay [1], the system named is EKVX.
In assay [2] the test system is SNB-78.
The test system of assay [3] is DLD-1.
The test system of assay [4] is MCF7.
The subject of assay [5] is KM-20L2.
For assay [6], the system named is MOLT-4.
In assay [7] the test system is HCT-15.
Assay [8] concerns HOP-18.
Assay [9] concerns DMS-114.
Assay [10] relates to RPMI-8226.
For assay [11], the system named is HOP-92.
In assay [12] the test system is DMS-273.
The test system of assay [13] is SF-268.
Assay [14] relates to MDA-MB-435.
Assay [15] deals with ACHN.
Assay [16] deals with TK-10.
The test system of assay [17] is MDA-N.
The subject of assay [18] is SR.
For assay [19], the system named is M19-MEL.
The subject of assay [20] is MDA-MB-231.

Each structure is given as a SMILES string.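 Assay format: 96-well plates, 48-hour exposure. GI50 = concentration required for 50% inhibition of growth.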 Calls of active or inactive are those of the source. No stated cut-off is given here; in the data, active = GI50 up to about 1.1 µM and inactive = higher. Bounds are passed on as bounds.

In the case of `O=P1(Oc2ccc(Cl)cc2Cl)Oc2cc3ccccc3cc2O1`, the GI50 in assay [1] is 33.9 µM (inactive); in assay [2], > 100 µM (inactive); in [3] it was 56.8 µM (inactive); in assay [4], 31.8 µM (inactive); in assay [5], > 100 µM (inactive); in [6], 23.5 µM (inactive). In addition, the GI50 in [7] is 50 µM; in [8], 62.2 µM (inactive); in assay [9] it was 27.5 µM (inactive); in assay [10] it was 18.8 µM (inactive); in assay [11], 28.5 µM (inactive); in assay [12] it was 59.6 µM (inactive). Moreover, the GI50 in assay [13] is > 100 µM (inactive).
With `Cc1nc(O)nc(N/N=C/c2ccc(Cl)cc2)c1C(=O)NC(C)(CO)CO`, the GI50 is > 100 µM (inactive) in [1]; > 100 µM (inactive) in [4]; > 100 µM (inactive) in assay [14]; > 100 µM (inactive) in [6]; over 100 µM in assay [7]; > 100 µM (inactive) in [15]. Moreover, the GI50 in [10], in assay [11], in [16], in [13], in assay [17] and in [18] was > 100 µM (inactive) throughout.
As for `CC1=C(O)C(=O)[C@@H]2O[C@@H]2C1=O`, the GI50 in [1] was 14.7 µM (inactive); in assay [19] it was 11.2 µM (inactive); in [2], 15.6 µM (inactive); in [3], 7.28 µM (inactive); in assay [4], 10 µM (inactive); in [5], 17.2 µM (inactive). The GI50 is 2.97 µM (inactive) in assay [6]; 7.01 µM in assay [7]; 12.5 µM (inactive) in [8]; 10.3 µM (inactive) in assay [9]; 3.46 µM (inactive) in [10]; 5.57 µM (inactive) in assay [11]. In addition, the GI50 was 22.8 µM (inactive) in assay [12] and 14.2 µM (inactive) in assay [13].
For `CN(C)c1ccc(/C=C/C(=O)O)cc1`, the GI50 in assay [1], in assay [19], in assay [2], in assay [3], in assay [5] and in assay [6] was > 100 µM (inactive) in each case. Also, the GI50 in [7] is over 100 µM; in assay [8] it was > 100 µM (inactive); in [9], > 100 µM (inactive); in assay [15] it was > 100 µM (inactive); in assay [10], > 100 µM (inactive); in assay [13] it was > 100 µM (inactive).
For `N#CC(OC1OC(COC2OC(CO)C(O)C(O)C2O)C(O)C(O)C1O)c1ccccc1` (stereo unspecified), the GI50 in [1], in [19], in [2], in [3], in assay [4] and in assay [5] was > 225 µM (inactive) in each case. The GI50 is > 225 µM (inactive) in [6]; over 225 µM in [7]; > 225 µM (inactive) in assay [8]; > 225 µM (inactive) in [9]; > 225 µM (inactive) in [10]; > 225 µM (inactive) in [11]. Besides, the GI50 in [12] and in [13] was > 225 µM (inactive) each time.
`NC(Cc1ccc(CP(=O)(O)O)cc1)C(=O)O` (stereo unspecified): the GI50 in [20] is > 100 µM (inactive); in [1] it was > 100 µM (inactive); in [4] it was > 100 µM (inactive); in assay [14] it was > 100 µM (inactive); in assay [6] it was > 100 µM (inactive); in [7] it was over 100 µM. Besides, the GI50 in [15], in [10], in assay [11], in assay [16], in assay [13] and in [17] was > 100 µM (inactive) each time. In assay [18], the GI50 was > 100 µM (inactive).
As to `CCOC(=O)/C=C/CC(C)(C)COC(C)=O`, the GI50 in assay [20] is > 10 µM (inactive); in assay [4], > 10 µM (inactive); in assay [14], > 10 µM (inactive); in assay [6] it was > 10 µM (inactive); in assay [7] it was over 10 µM; in [15], 6.75 µM (inactive). The GI50 in [10] is > 10 µM (inactive); in assay [16], > 10 µM (inactive); in [13], > 10 µM (inactive); in assay [17] it was 7.48 µM (inactive); in assay [18], > 10 µM (inactive).
Turning to `O=C1C(Cl)N(c2cccc([N+](=O)[O-])c2)C1c1c[nH]c2ccccc12` (stereo unspecified), the GI50 in assay [1] was 28.4 µM (inactive); in assay [19], 18.1 µM (inactive); in assay [5], 19.9 µM (inactive); in assay [6], 8.38 µM (inactive); in assay [9], 15.1 µM (inactive); in assay [10] it was 16.9 µM (inactive). Also, the GI50 in assay [11] is 19 µM (inactive); in [16], 20.4 µM (inactive); in assay [13] it was 29.6 µM (inactive); in [18], 10.7 µM (inactive).
With `COC(=O)[C@H]1C=NN[C@@H]1C(=O)N1[C@H]2CC3CC[C@@]2(CS1(=O)=O)C3(C)C`, the GI50 in assay [20] is > 100 µM (inactive); in assay [1], > 100 µM (inactive); in assay [4], > 100 µM (inactive); in assay [14] it was > 100 µM (inactive); in assay [6], > 100 µM (inactive); in [7], over 100 µM. For the same compound, the GI50 in assay [15], in [10], in [11], in [16], in [13] and in assay [18] was > 100 µM (inactive) throughout.
